According to article PMC9692523, “Exposure to (Poly)phenol Metabolites after a Fruit and Vegetable Supplement Intake: A Double-Blind, Cross-Over, Randomized Trial” (Nutrients, 2022):

Key:
[1] = Plasma pharmacokinetics of phenolic metabolites after one 450 mg capsule of the supplement (UHPLC-ESI-MS/MS); format: in vivo, human; details: for Cmax / Tmax / Tpres (time of presence of metabolites in circulation): n = 10, mean ± SEM; for Tpres (time of presence of metabolites in circulation): interval between first and last appearance; for AUC0-24: supplemented volunteers (n = 10), 450 mg capsule, mean ± SEM
Description: (§1) This study was designed as a 3-week randomized, double-blind, cross-over clinical trial. Eligible participants were randomized using simple block randomization of 1:1. Once enrolled, subjects received either one 450 mg capsule of the test supplement or one 450 mg capsule of placebo on the first day of the study (Phase I: D1). After three days of sampling, volunteers started a wash-out period of 1 week and were then enrolled for the second test Phase with ingestion of the opposite supplement (Phase II: D1) (Figure 1). The placebo product was 100% maltodextrin, which was (poly)phenol-free.
On the day of the test (D1), volunteers visited the Research Center after an overnight fast. Blood was collected at T0 to determine baseline levels of plasma phenolic metabolites. Then, volunteers were invited to take the 450 mg capsule of the supplement or the placebo with 250 mL of still water (Figure 2). Additional blood samples were then collected at 1 h (D1, T1), 2 h (D1, T2), 3 h (D1, T3), 4 h (D1, T4), 5 h (D1, T5), 6 h (D1, T6), 8 h (D1, T8), 10 h (D1, T10) and 24 h (D2, T24) after capsule intake. Blood was taken from the basilica vein and centrifuged at 3000 rpm for 10 min at 4 °C. Plasma was immediately extracted and frozen at −80 °C for further analysis.
Plasma samples were then extracted using a solid phase extraction (SPE) method, as previously reported by Castello and colleagues. Briefly, 350 µL of plasma samples was diluted (1:1) with phosphoric acid 4% (v/v). After plate activation, 600 µL of the diluted plasma samples was loaded on a 96 well µ-SPE HLB (Oasis® HLB µElution Plate 30 µm, Waters, Milford, Massachusetts, MA, USA). Samples were washed with 200 µL of water and 200 µL of 0.2% (v/v) acetic acid. Finally, samples were eluted with 60 µL of methanol for UHPLC-ESI-MS/MS analysis.
(§2) Plasma and urine samples were analyzed by a UHPLC DIONEX Ultimate 3000 equipped with a triple quadrupole TSQ Vantage (Thermo Fisher Scientific Inc) fitted with a heated ESI (H-ESI) (Thermo Fisher Scientific Inc) probe, as previously reported. Separations were carried out by means of a Kinetex EVO C18 (100 × 2.1 mm) column, 2.6 µm particle size (Phenomenex, Torrance, CA, USA), installed with a pre-column (Phenomenex). Mobile phase A was 0.2% formic acid in water, and mobile phase B was acetonitrile containing 0.2% formic acid. The gradient started with 5% B, and isocratic conditions were maintained for 0.5 min, reaching 95% B after 6.5 min, followed by 1 min at 95%. The starting gradient was then immediately re-established and maintained for 5 min to re-equilibrate the column. The flow rate was 0.4 mL/min, the injection volume was 5 µL and the column temperature was set at 40 °C.
(§3) The applied MS method consisted of the selective determination of each target precursor ion by the acquisition of characteristic product ion in selective reaction monitoring (SRM) mode (Supplemental Table S2). For all the analyses, the spray voltage was set at 3 kV, the vaporizer temperature at 300 °C and the capillary temperature operated at 270 °C. The sheath gas flow was 50 units, and auxiliary gas pressure was set to 10 units. Ultra-high purity argon gas was used for collision-induced dissociation (CID). The S-lens values were defined for each compound based on infusion parameter optimization. Conversely, for those compounds not available for infusion, the S-lens values were set using the values obtained for the chemically closest available standards. Quantification was performed with calibration curves of standards when available or using the most structurally similar compound. Data processing was performed using Xcalibur software (Thermo Scientific Inc., San Jose, CA, USA).
All data were expressed as mean values ± standard deviation (SD) and mean values ± standard error to the mean (SEM) for metabolites in blood and urine samples. […]

[2] = Urinary excretion of phenolic metabolites over 48 h after one 450 mg capsule of the supplement (UHPLC-ESI-MS/MS); format: in vivo, human; details: for Urinary excretion 0 (h) / Urinary excretion 0–3 (h) / Urinary excretion 3–6 (h) / Urinary excretion 6–10 (h) / Urinary excretion 10–14 (h) / Urinary excretion 14–24 (h) / Urinary excretion 24–32 (h) / Urinary excretion 32–48 (h) / Urinary excretion Total (0–48 h): urine, n = 10, mean ± SEM; for Urinary excretion 0 (h): baseline (day before)
Description: as §1
Urine samples were collected the day before (baseline) and during the 48 h period following the supplementation (T0-T3, T3-T6, T6-T10, T10-T14, T14-T24, T24-T32 and T32-T48) (Figure 2). Urine volumes at each collection period were registered, and samples were aliquoted and stored at −80 °C until further processing.
Then, urine samples were prepared as previously reported by Brindani and colleagues. Briefly, urine samples were defrosted, vortexed, diluted in 0.1% formic acid in water (1:4, v/v) and centrifuged at 12,000 rpm for 5 min. Finally, urine samples were filtered (0.45 µm nylon filter) prior to UHPLC-ESI-MS/MS analysis.
as §2, §3
All data were expressed as mean values ± standard deviation (SD) and mean values ± standard error to the mean (SEM) for metabolites in blood and urine samples. PKSolver add-on program in Microsoft Excel was used to determine pharmacokinetic parameters of blood phenolic metabolites, including time to reach the maximum plasma concentration (Tmax, h), maximum plasma concentration (Cmax, nmol/L), area under the curve (AUC0-24, nmol/L·h), and time of presence of metabolites in circulation (Tpres, h). Tpres was calculated by taking the time interval between the first appearance and the last appearance of the considered metabolite. Coefficient of variation (CV) was evaluated for each metabolite and multivariate principal component analysis (PCA) was applied to explore the inter-individual variation in the urinary metabolites among the participants. […]

SMILES | Cmax [1] | Tmax [1] | Tpres (time of presence of metabolites in circulation) [1] | AUC0-24 [1] | Urinary excretion 0 (h) [2] | Urinary excretion 0–3 (h) [2] | Urinary excretion 3–6 (h) [2] | Urinary excretion 6–10 (h) [2] | Urinary excretion 10–14 (h) [2] | Urinary excretion 14–24 (h) [2] | Urinary excretion 24–32 (h) [2] | Urinary excretion 32–48 (h) [2] | Urinary excretion Total (0–48 h) [2] | Time of maximum (peak) urinary excretion ([2]; collection interval post-consumption)
O=C1CCC(Cc2cc(O)cc(OS(=O)(=O)O)c2)O1 (stereo not shown) [compound 16] | 9.97 ± 4.31 nM | 8.88 ± 2.41 h | 10.57 ± 2.72 h | 0.03046 ± 0.01185 µM·h | 18.25 ± 10.84 µg | 4.64 ± 3.47 µg | 439.69 ± 219.42 µg | 1256.55 ± 516.93 µg | 944.18 ± 474.02 µg | 3986.28 ± 711.64 µg | 1721.60 ± 393.97 µg | 586.15 ± 240.93 µg | 8957.33 ± 1361.49 µg | –
O=C(O)C1OC(Oc2cc(CCO)ccc2O)C(O)C(O)C1O (stereo not shown) [compound 33] | 24.9 ± 5.63 nM | 1.45 ± 0.32 h | 8.45 ± 2.19 h | 0.05092 ± 0.00585 µM·h | – | 53.75 ± 15.51 µg | 69.04 ± 13.20 µg | 38.02 ± 8.17 µg | 10.90 ± 3.90 µg | 10.23 ± 3.71 µg | 0.75 ± 0.75 µg | – | 182.69 ± 19.99 µg | 3 to 6 h
COc1ccc(C2CC(=O)c3c(O)cc(OC4OC(C(=O)O)C(O)C(O)C4O)cc3O2)cc1O (stereo not shown) [compound 28] | 19.9 ± 2.31 nM | 7.11 ± 0.90 h | 17.83 ± 1.54 h | 0.15205 ± 0.02784 µM·h | 14.48 ± 5.94 µg | 4.02 ± 2.90 µg | 20.07 ± 4.27 µg | 28.56 ± 5.46 µg | 9.57 ± 2.19 µg | 30.72 ± 8.04 µg | 19.07 ± 5.57 µg | 22.33 ± 5.83 µg | 148.81 ± 14.88 µg | –

The next lines start with the values.

Cmax [1] | Tmax [1] | Tpres (time of presence of metabolites in circulation) [1] | AUC0-24 [1] | Urinary excretion 0 (h) [2] | Urinary excretion 0–3 (h) [2] | Urinary excretion 3–6 (h) [2] | Urinary excretion 6–10 (h) [2] | Urinary excretion 10–14 (h) [2] | Urinary excretion 14–24 (h) [2] | Urinary excretion 24–32 (h) [2] | Urinary excretion 32–48 (h) [2] | Urinary excretion Total (0–48 h) [2] | Time of maximum (peak) urinary excretion ([2]; collection interval post-consumption) | SMILES
6.34 ± 1.66 nM | 5.88 ± 0.95 h | 7.13 ± 2.27 h | 0.022 ± 0.00641 µM·h | 15.01 ± 15.01 µg | 15.42 ± 15.42 µg | 196.48 ± 138.99 µg | 169.91 ± 105.95 µg | 65.96 ± 36.27 µg | 468.44 ± 330.34 µg | 81.71 ± 28.26 µg | 16.56 ± 16.56 µg | 1029.49 ± 394.77 µg | – | O=C1CCC(Cc2cccc(O[C@@H]3O[C@H](C(=O)O)[C@@H](O)[C@H](O)[C@H]3O)c2)O1 (stereo partly shown) [compound 17]
40 ± 16.9 nM | 7.00 ± 0.75 h | 12.15 ± 1.84 h | 0.1417 ± 0.05037 µM·h | 344.60 ± 186.50 µg | 166.29 ± 126.77 µg | 2548.76 ± 1207.06 µg | 2277.16 ± 795.52 µg | 919.49 ± 314.48 µg | 3618.13 ± 985.44 µg | 1346.37 ± 481.02 µg | 389.78 ± 215.48 µg | 11,610.60 ± 1923.81 µg | – | O=C1CCC(Cc2ccc(OS(=O)(=O)O)c(O)c2)O1 (stereo not shown) [compound 21]
